# Reference: patent publication US20160193206A1, “BET-PROTEIN-INHIBITING DIHYDROPYRIDOPYRAZINONES” (BAYER PHARMA AKTIENGESELLSCHAFT, priority 2012, published 2016)
# Legend:
# [1] = biological target: T1, BRD4 bromo domain 2 [BRD4(2)] (Homo sapiens, UniProt O60885); experiment: BRD4(2)/acetylated peptide H4 binding assay (TR-FRET); settings: inhibition of interaction between His6-tagged BRD4(2) (amino acids 357-445) and acetylated histone H4 peptide
# T1 construct: N-terminally His6-tagged BRD4(2) (amino acids 357-445); made in house; host or cells: E. coli
# From the text: (§1) Protein-Protein Interaction Assay: BRD4/Acetylated Peptide H4 Binding Assay
# 2. Assay Description for BRD4 Bromo Domain 2 [BRD4(2)]
# To assess the BRD4(2) binding strength of the substances described in this application, the ability thereof to inhibit the interaction between BRD4(2) and acetylated histone H4 in a dose-dependent manner was quantified.
# (§2) For this purpose, a time-resolved fluorescence resonance energy transfer (TR-FRET) assay was used, which measures the binding between N-terminally His6-tagged BRD4(2) (amino acids 357-445) and a synthetic acetylated histone H4 (Ac-H4) peptide with sequence SGRGK(Ac)GGK(Ac)GLGK(Ac)GGAK(Ac)RHRKVLRDNGSGSK-biotin. The recombinant BRD4(2) protein produced in-house according to Filippakopoulos et al., Cell, 2012, 149:214-231 was expressed in E. coli and purified by means of (Ni-NTA) affinity and (Sephadex G-75) size exclusion chromatography. The Ac-H4 peptide can be purchased, for example, from Biosyntan (Berlin, Germany).
# (§3) In the assay, typically 11 different concentrations of each substance (0.1 nM, 0.33 nM, 1.1 nM, 3.8 nM, 13 nM, 44 nM, 0.15 μM, 0.51 μM, 1.7 μM, 5.9 μM and 20 μM) were analysed as duplicates on the same microtitre plate. For this purpose, 100-fold concentrated solutions in DMSO were prepared by serial dilutions (1:3.4) of a 2 mM stock solution into a clear, 384-well microtitre plate (Greiner Bio-One, Frickenhausen, Germany). From this, 50 nl were transferred into a black test plate (Greiner Bio-One, Frickenhausen, Germany). The test was started by the addition of 2 μl of a 2.5-fold concentrated BRD4(2) solution (final concentration typically 100 nM in the 5 μl of reaction volume) in aqueous assay buffer [50 mM HEPES pH 7.5, 50 mM sodium chloride (NaCl); 50 mM potassium fluoride (KF); 0.25 mM CHAPS and 0.05% serum albumin (BSA)] to the substances in the test plate. This was followed by a 10-minute incubation step at 22° C. for the pre-equilibration of putative complexes between BRD4(2) and the substances.
# (§4) The mixture was then incubated in the dark at 22° C. for one hour and then at 4° C. for at least 3 hours and for no longer than overnight. The formation of BRD4(2)/Ac-H4 complexes was determined by the measurement of the resonance energy transfer from the streptavidin-Eu chelate to the anti-6His-XL665 antibody present in the reaction. For this purpose, the fluorescence emission was measured at 620 nm and 665 nm after excitation at 330-350 nm in a TR-FRET measuring instrument, for example a Rubystar or Pherastar (both from BMG Lab Technologies, Offenburg, Germany) or a Viewlux (Perkin-Elmer). The ratio of the emissions at 665 nm and at 622 nm was taken as an indicator of the amount of BRD4(2)/Ac-H4 complexes formed.
# (§5) The data (ratios) obtained were normalized, with 0% inhibition corresponding to the mean from the measurements for a set of controls (typically 32 data points) in which all the reagents were present. In these, in place of test substances, 50 nl of DMSO (100%) were used. Inhibition of 100% corresponded to the mean from the measurements for a set of controls (typically 32 data points) in which all the reagents except BRD4(2) were present. The IC50 was determined by regression analysis based on a 4-parameter equation (minimum, maximum, IC50, Hill; Y=max+(min−max)/(1+(X/IC50)Hill).
# [2] = biological target: T2, BRD4 bromo domain 1 [BRD4(1)] (Homo sapiens, UniProt O60885); experiment: BRD4(1)/acetylated peptide H4 binding assay (TR-FRET); settings: inhibition of interaction between His6-tagged BRD4(1) (amino acids 67-152) and acetylated histone H4 peptide
# T2 construct: N-terminally His6-tagged BRD4(1) (amino acids 67-152); made in house; host or cells: E. coli
# From the text: as §1
# 1. Assay Description for BRD4 Bromo Domain 1 [BRD4(1)]
# To assess the BRD4(1) binding strength of the substances described in this application, the ability thereof to inhibit the interaction between BRD4(1) and acetylated histone H4 in a dose-dependent manner was quantified.
# as §2, with “BRD4(1)” for “BRD4(2)”, “67-152)” for “357-445)”, “GRGK(Ac)GGK(Ac)GLGK(Ac)GGAK(Ac)RHGSGSK-biotin.” for “SGRGK(Ac)GGK(Ac)GLGK(Ac)GGAK(Ac)RHRKVLRDNGSGSK-biotin.”
# as §3, with “concentrated BRD4(1)” for “concentrated BRD4(2)”, “typically 10” for “typically 100”, “chloride (NaCl),” for “chloride (NaCl); 50 mM potassium fluoride (KF);”, “between BRD4(1)” for “between BRD4(2)”
# as §4, with “BRD4(1)/Ac-H4” for “BRD4(2)/Ac-H4”, “cryptate” for “chelate”
# as §5, with “BRD4(1)” for “BRD4(2)”
SMILES,IC50 [1] [nM],IC50 [2] [nM]
"COc1cc(C(=O)NC2CCN(C(C)=O)CC2)ccc1Nc1ccc2c(n1)N(C1CCCCCC1)[C@H](C)C(=O)N2C [Example 88, N-(1-Acetylpiperidin-4-yl)-4-{[(3R)-4-cycloheptyl-1,3-dimethyl-2-oxo-1,2,3,4-tetrahydropyrido[2,3-b]pyrazin-6-yl]amino}-3-methoxybenzamide]",146,339
"COc1cc(C(=O)N2CCN(C(C)C)CC2)ccc1Nc1ccc2c(n1)N(C1CCCCC1)[C@H](C)C(=O)N2C [Example 28, (3R)-4-Cyclohexyl-6-[(2-methoxy-4-{[4-(propan-2-yl)piperazin-1-yl]carbonyl}phenyl)amino]-1,3-dimethyl-3,4-dihydropyrido[2,3-b]pyrazin-2(1H)-one]",116,195
"COc1cc(C(=O)NC2CN(C)C2)ccc1Nc1ccc2c(n1)N(C1CCCCCC1)[C@H](C)C(=O)N2C [Example 87, 4-{[(3R)-4-Cycloheptyl-1,3-dimethyl-2-oxo-1,2,3,4-tetrahydropyrido[2,3-b]pyrazin-6-yl]amino}-3-methoxy-N-(1-methylazetidin-3-yl)benzamide]",75,216
"C[C@@H]1C(=O)N(C)c2ccc(Nc3ccc(C(=O)N4CCN(C)CC4)cc3)nc2N1C1CCOCC1 [Example 56, (3R)-1,3-Dimethyl-6-({4-[(4-methylpiperazin-1-yl)carbonyl]phenyl}amino)-4-(tetrahydro-2H-pyran-4-yl)-3,4-dihydropyrido[2,3-b]pyrazin-2(1H)-one]",242,139
"COc1cc(C(=O)N2CC3(COC3)C2)ccc1Nc1ccc2c(n1)N(C1CCCCCC1)[C@H](C)C(=O)N2C [Example 32, (3R)-4-Cycloheptyl-6-{[2-methoxy-4-(2-oxa-6-azaspiro[3.3]hept-6-ylcarbonyl)phenyl]amino}-1,3-dimethyl-3,4-dihydropyrido[2,3-b]pyrazin-2(1H)-one]",77,376
"C[C@@H]1C(=O)N(C)c2ccc(Nc3ccc(C(=O)NC4CCC(O)CC4)cc3)nc2N1C1CCCCCC1 (stereo partly drawn) [Example 90, 4-{[(3R)-4-Cycloheptyl-1,3-dimethyl-2-oxo-1,2,3,4-tetrahydropyrido[2,3-b]pyrazin-6-yl]amino}-N-(4-hydroxycyclohexyl)benz-amide]",208,341
"C[C@@H]1C(=O)N(C)c2ccc(Nc3ccc(C(=O)NC4CN(C)C4)cc3)nc2N1C1CCCCCC1 [Example 85, 4-{[(3R)-4-Cycloheptyl-1,3-dimethyl-2-oxo-1,2,3,4-tetrahydropyrido[2,3-b]pyrazin-6-yl]amino}-N-(1-methylazetidin-3-yl)benzamide]",98,186
"C[C@@H]1C(=O)N(C)c2ccc(Nc3ccc(S(=O)(=O)N(C)C)cc3)nc2N1C1CCN(C(=O)OC(C)(C)C)CC1 [Example 106, tert-Butyl 4-[(3R)-6-{[4-(dimethylsulphamoyl)phenyl]amino}-1,3-dimethyl-2-oxo-2,3-dihydropyrido[2,3-b]pyrazin-4(1H)-yl]piperidine-1-carbonate]",463,632

# The remaining compounds from weak to strong by IC50 [1], led by results:
IC50 [1] [nM],IC50 [2] [nM],SMILES
317,114,"C[C@@H]1C(=O)N(C)c2ccc(Nc3ccc(C(=O)NCCc4cccnc4)cc3)nc2N1C1CCOCC1 [Example 49, 4-{[(3R)-1,3-Dimethyl-2-oxo-4-(tetrahydro-2H-pyran-4-yl)-1,2,3,4-tetrahydropyrido[2,3-b]pyrazin-6-yl]amino}-N-[2-(pyridin-3-yl)ethyl]benzamide]"
283,368,"C[C@@H]1C(=O)N(C)c2ccc(Nc3ccc(C(=O)N[C@H]4CC[C@H](N5CCN(CC6CC6)CC5)CC4)cc3)nc2N1C1CCCCCC1 [Example 44, 4-{[(3R)-4-Cycloheptyl-1,3-dimethyl-2-oxo-1,2,3,4-tetrahydropyrido[2,3-b]pyrazin-6-yl]amino}-N-{trans-4-[4-(cyclopropylmethyl)piperazin-1-yl]cyclohexyl}benzamide]"
239,63,"C[C@@H]1C(=O)N(C)c2ccc(Nc3ccc(S(=O)(=O)NC4CCN(C)CC4)cc3)nc2N1c1ccccc1 [Example 108, 4-{[(3R)-1,3-Dimethyl-2-oxo-4-phenyl-1,2,3,4-tetrahydropyrido[2,3-b]pyrazin-6-yl]amino}-N-(1-methylpiperidin-4-yl)benzenesulphonamide]"
165,448,"COc1cc(C(=O)N2CC3(CCS3(=O)=O)C2)ccc1Nc1ccc2c(n1)N(C1CCCCCC1)[C@H](C)C(=O)N2C [Example 84, (3R)-4-Cycloheptyl-6-({4-[(1,1-dioxido-1-thia-6-azaspiro[3.3]hept-6-yl)carbonyl]-2-methoxyphenyl}amino)-1,3-dimethyl-3,4-dihydropyrido[2,3-b]pyrazin-2(1H)-one]"
102,218,"COc1cc(C(=O)N2CCC(F)CC2)ccc1Nc1ccc2c(n1)N(Cc1ccccc1)[C@H](C)C(=O)N2C [Example 43, (3R)-4-Benzyl-6-({4-[(4-fluoropiperidin-1-yl)carbonyl]-2-methoxyphenyl}amino)-1,3-dimethyl-3,4-dihydropyrido[2,3-b]pyrazin-2(1H)-one]"
